# Patent publication US8772504B2, “Substituted benzoxazole, benzimidazole, oxazolopyridine and imidazopyridine derivatives as gamma secretase modulators” (Janssen Pharmaceuticals, Inc., priority 2009, dated 2014)
# Experiments:
# Aβ42 = assay: In vivo efficacy Method 2: brain soluble Aβ42 by ELISA; parameters: species or system mouse; conditions: Table 4b, single oral dose, overnight fasted non-transgenic animals, sacrificed after 4 h, soluble fraction of brain homogenates
# Excerpt: (§1) To determine whether acute administration of an Aβ42 lowering agent would reduce Aβ42 levels in vivo, non-transgenic rodents, e.g. mice or rats were used. Animals treated with the Aβ42 lowering agent were examined and compared to those untreated or treated with vehicle and brain levels of soluble Aβ42 and total Aβ were quantitated by standard techniques, for example, using ELISA. Treatment periods varied from hours (h) to days and were adjusted based on the results of the Aβ42 lowering once a time course of onset of effect could be established.
# (§2) A typical protocol for measuring Aβ42 lowering in vivo is shown but it is only one of many variations that could be used to optimize the levels of detectable Aβ. For example, Aβ42 lowering compounds were formulated in 20% of Captisol® (a sulfobutyl ether of β-cyclodextrin) in water or 20% hydroxypropyl β cyclodextrin. The Aβ42 lowering agents were administered as a single oral dose or by any acceptable route of administration to overnight fasted animals. After 4 h, the animals were sacrificed and Aβ42 levels were analysed.
# (§3) Blood was collected by decapitation and exsanguinations in EDTA-treated collection tubes. Blood was centrifuged at 1900 g for 10 minutes (min) at 4° C. and the plasma recovered and flash frozen for later analysis. The brain was removed from the cranium and hindbrain. The cerebellum was removed and the left and right hemisphere were separated. The left hemisphere was stored at −18° C. for quantitative analysis of test compound levels. The right hemisphere was rinsed with phosphate-buffered saline (PBS) buffer and immediately frozen on dry ice and stored at −80° C. until homogenization for biochemical assays.
# (§4) Mouse brains from non-transgenic animals were resuspended in 8 volumes of 0.4% DEA (diethylamine)/50 mM NaCl containing protease inhibitors (Roche-11873580001 or 04693159001) per gram of tissue, e.g. for 0.158 g brain, add 1.264 ml of 0.4% DEA. All samples were homogenized in the FastPrep-24 system (MP Biomedicals) using lysing matrix D (MPBio #6913-100) at 6 m/s for 20 seconds. Homogenates were centrifuged at 221.300×g for 50 min. The resulting high speed supernatants were then transferred to fresh eppendorf tubes. Nine parts of supernatant were neutralized with 1 part 0.5 M Tris-HCl pH 6.8 and used to quantify Aβtotal and Aβ42.
# (§5) To quantify the amount of Aβtotal and Aβ42 in the soluble fraction of the brain homogenates, Enzyme-Linked-Immunosorbent-Assays were used . Briefly, the standards (a dilution of synthetic Aβ1-40 and Aβ1-42, Bachem) were prepared in 1.5 ml Eppendorf tube in Ultraculture, with final concentrations ranging from 10000 to 0.3 pg/ml. The samples and standards were co-incubated with HRPO-labelled N-terminal antibody for Aβ42 detection and with the biotinylated mid-domain antibody 4G8 for Aβtotal detection. 50 μl of conjugate/sample or conjugate/standards mixtures were then added to the antibody-coated plate (the capture antibodies selectively recognize the C-terminal end of Aβ42, antibody JRF/cAβ42/26, for Aβ42 detection and the N-terminus of Aβ, antibody JRF/rAβ/2, for Aβtotal detection). The plate was allowed to incubate overnight at 4° C. in order to allow formation of the antibody-amyloid complex. Following this incubation and subsequent wash steps the ELISA for Aβ42 quantification was finished by addition of Quanta Blu fluorogenic peroxidase substrate according to the manufacturer's instructions (Pierce Corp., Rockford, Ill.). A reading was performed after 10 to 15 min (excitation 320/emission 420).
# In this model at least 20% Aβ42 lowering compared to untreated animals would be advantageous.
# Aβtotal = assay: In vivo efficacy Method 2: brain soluble Aβtotal by ELISA; parameters: species or system mouse; conditions: Table 4b, single oral dose, overnight fasted non-transgenic animals, sacrificed after 4 h, soluble fraction of brain homogenates
# Excerpt: as §1, §2, §3, §4, §5
# For Aβtotal detection, a Streptavidine-Peroxidase-Conjugate was added, followed 60 min later by an additional wash step and addition of Quanta Blu fluorogenic peroxidase substrate according to the manufacturer's instructions (Pierce Corp., Rockford, Ill.). A reading was performed after 10 to 15 min (excitation 320 nm/emission 420 nm).
SMILES,Aβ42 (% Ctrl) _Mean (Aβ42) [% Ctrl],Aβtotal (% Ctrl) _Mean (Aβtotal) [% Ctrl]
COc1nc(Nc2cccc3c2nc(-c2ccc(F)cc2)n3C)ccc1-n1cnc(C)c1 [Compound 15],39,82
COc1cc(Nc2cc(C(C)C)nc3c2nc(-c2ccc(F)cc2)n3C)ccc1-n1cnc(C)n1 [Compound 110],78,106
